Experimental data taken from patent publication US6146554A, “Photochromic naphtopyrane colorants, method for the production and use thereof, photochromic object” (Optische Werke G. Rodenstock, priority 1997, dated 2000).

Key:
Format in all cases: physicochemical
[1] = Photochromy observed in solution and in the glass
Experimental: (ix) 1 g of the above reaction product is dissolved in 50 ml of absolute THF while stirring and cooled in an ice bath. Lithium aluminium hydride is added in small portions until the colour of the reaction solution does no longer brighten up. Stirring is then continued for another 10 min. and the solution is poured into water, acidified with conc. hydrochloric acid until the phases are clear whereupon the organic phase is isolated. After extraction with water, drying over sodium sulphate and removal of the solvent by rotation a brownish viscous residue remains which crystallises when methanol is added. The suspension is stirred at room temperature for some minutes more and then the precipitate is exhausted. The slightly brownish solid (0.8 g) was identified as 6-methoxy-3-(4-methoxy phenyl)-3-phenyl-13-hydroxy-benz[p]indeno[2,1-f]naphtho[1,2-b]pyrane by means of the NMR spectrum.

[2] = Absorption maximums of the closed and open forms and colour (Table 1, FIGS. 4 and 5); conditions: for max closed form / max closed form (shoulder): closed (not excited) form; for max closed form: Transhade-150 test specimen, 500 ppm; for colour / max open form: open (excited) form
From the text: For illustration of the aforedescribed bathochromic shift of the inventive compounds, compared against prior art, comparative tests have been carried out.
The first three compounds in Table 1--V1, V2 and Example 3--correspond to prior art (cf. WO 96/14596); the production of V1 and V2 is described there in details.
The production of the test specimens and the measuring methodology are described in details i the Examples.
FIGS. 4 and 5 show the absorption of the closed form or the absorption of the open form, compared against the absorption of the prior art compounds V1 and V2, expressed by plotting the extinction versus the wavelength. For a better recognition of the bathochromic shift a normalisation of the absorption intensity to roughly the same value has been made in the open form.
Absorption maximums of the open and closed forms, starting out
(§1) 500 ppm of the respective photochromic dye are dissolved in the employed monomer (TRANSHADE-150 from the company of Tokuyama; index of refraction 1.52) at room temperature while stirring. After the addition of an initiator of the alkyl peroxy-ester type (1.5% by weight) degassing is performed twice and subsequently the polymerisation is carried out in correspondence with the temperature programme recommended by the Tokuyama company. The glass casting moulds are coloured in black so that the entirety of the photochromic dyes may be integrated into the matrix in a non-excited state. After completion of the polymerisation process the test specimens are additionally tempered at 100° C. for 2 hours.

[3] = Brightening rate and brightening kinetics in the polymer Transhade-150; conditions: for Δ(10 min, 23° C.) relative brightening: within 10 min at 23° C.
Experimental: For a further illustration of the foregoing explanations comparative tests have been carried out again on the inventive compounds and on known compounds. The compounds used are derived from the compound of the following general formula: [drawing 5]
The brightening rate and the brightening kinetics were measured for differently substituted systems in the polymer Transhade-150 of the company of Tokuyama at different temperatures. The results obtained are summarised in the following, with the following terms being used:
Δ=relative brightening within 10 minutes at 23° C.
=100% (.tau.10 min-.tau.s)/(.tau.0-.tau.s)
.tau.s is the transmission achieved after 15 min of obscuration
.tau.0 is the transmission in the fully brightened condition
.tau.10 min is the transmission after 10 min brightening in the dark
T1/2 =time elapsing up to a brightening level corresponding to half the darkening level (half-period)
The brightening kinetics of differently substituted systems was determined, with R1, R2 and R3 representing either the methoxy group or hydrogen; the measurements were performed at 23° C. and 40° C.
Production of the test specimens:
as §1
Plotting of the kinetics graphs:
For the determination of the brightening rates the test specimens so produced were measured in a common kinetics test bench (irradiation with 50 klux in compliance with EN 1836, item 6.1.3.1.1). The exposure time was 15 minutes in each case, brightening takes place in the dark. During exposure and brightening the transmission graph--evaluated by the sensitivity to brightness of the human eye, V λ--is recorded. The glass temperature is controlled via a cuvette designed for being controlled by means of a thermostat.

[4] = Table 3: R1 = OCH3, R2 = R3 = H
[5] = Table 4: R1 = R3 = OCH3, R2 = H

COc1ccc(C2(c3ccccc3)C=Cc3c4c(c5ccc(OC)cc5c3O2)-c2ccc3ccccc3c2C4O)cc1 (stereo not shown) [Example 1, 6-methoxy-3-(4-methoxyphenyl)-3-phenyl-13-hydroxy-benz[p]indeno[2,1-f]naphtho[1,2-b]pyrane]
photochromy colour [1]: green photochromy
max closed form [2]: 385 nm
colour [2]: green
max open form [2]: 600 nm

COc1ccc(C2(c3ccccc3)C=Cc3c4c(c5ccc(OC)cc5c3O2)-c2ccccc2C4O)cc1 (stereo not shown) [Example 3, 6-methoxy-3-(4-methoxyphenyl)-3-phenyl-13-hydroxy-indeno[2,1-f]-naphtho[1,2-b]pyrane]
max closed form (shoulder) [2]: 375 nm
max closed form [2]: 360 nm
colour [2]: blue
max open form [2]: 575 nm

CCC1(O)c2ccccc2-c2c1c1c(c3cc(OC)ccc23)OC(c2ccccc2)(c2ccc(OC)cc2)C=C1 (stereo not shown) [Example 4, 6-methoxy-3-(4-methoxyphenyl)-3-phenyl-13-ethyl-13-hydroxy-indeno[2,1-f]naphtho[1,2-b]pyrane]
T1/2 (40° C.) [3, 4]: 7.0 min
Δ(10 min, 23° C.) relative brightening [3, 4]: 25%

COc1ccc(C2(c3ccccc3)C=Cc3c4c(c5ccc(OC)cc5c3O2)-c2ccccc2C4(O)c2ccccc2)cc1 (stereo not shown) [Example 5, 13-hydroxy-6-methoxy-3-(4-methoxyphenyl)-3,13-diphenyl indeno[2,1-f]-naphtho[1,2-b]pyrane]
T1/2 (40° C.) [3, 4]: 7.0 min
Δ(10 min, 23° C.) relative brightening [3, 4]: 22%

COc1ccc(C2(c3ccccc3)C=Cc3c4c(c5ccc(OC)cc5c3O2)-c2ccccc2C4(O)c2cccc3ccccc23)cc1 (stereo not shown) [Example 6, 6-methoxy-3-(4-methoxyphenyl)-3-phenyl-13-(1-naphthyl)-13-hydroxy-indeno [2,1-f]-naphtho[1,2-b]pyrane]
T1/2 (40° C.) [3, 4]: 5.0 min
Δ(10 min, 23° C.) relative brightening [3, 4]: 29%

COc1ccc(C2(c3ccccc3)C=Cc3c4c(c5ccc(OC)cc5c3O2)-c2ccccc2C4(O)c2ccccc2C)cc1 (stereo not shown) [Example 7]
T1/2 (40° C.) [3, 4]: 4.2 min
Δ(10 min, 23° C.) relative brightening [3, 4]: 34%

COc1ccc(C2(c3ccccc3)C=Cc3c4c(c5ccc(OC)cc5c3O2)-c2ccccc2C4(O)c2cc(C)ccc2C)cc1 (stereo not shown) [Example 8, 6-methoxy-3-(4-methoxyphenyl)-3-phenyl-13-(2,5-dimethylphenyl)-13-hydroxy-indeno[2,1-f]naphtho[1,2-b]pyrane]
T1/2 (40° C.) [3, 4]: 4.0 min
Δ(10 min, 23° C.) relative brightening [3, 4]: 36%

COc1ccc(C2(c3ccccc3)C=Cc3c4c(c5ccc(OC)cc5c3O2)-c2ccccc2C4(O)c2sccc2C)cc1 (stereo not shown) [Example 9, 6-methoxy-3-(4-methoxyphenyl)-3-phenyl-13-(3-methyl-2-thienyl)-13-hydroxy-indeno[2,1-f]naphtho[1,2-b]pyrane]
T1/2 (40° C.) [3, 4]: 3.4 min
Δ(10 min, 23° C.) relative brightening [3, 4]: 38%

COc1ccc(C2(c3ccc(OC)cc3)C=Cc3c4c(c5ccc(C)cc5c3O2)-c2ccc(C)cc2C4O)cc1 (stereo not shown) [Example V2]
max closed form (shoulder) [2]: 375 nm
max closed form [2]: 350 nm
colour [2]: blue-violet
max open form [2]: 570 nm

COc1ccc(C2(c3ccc(OC)cc3)C=Cc3c4c(c5ccc(OC)cc5c3O2)-c2ccccc2C4(O)c2ccccc2)cc1 (stereo not shown) [Example V3]
T1/2 (40° C.) [3, 5]: 2.5 min
Δ(10 min, 23° C.) relative brightening [3, 5]: 43%

COc1ccc(C2(c3ccc(OC)cc3)C=Cc3c4c(c5ccc(OC)cc5c3O2)-c2ccccc2C4(O)c2cccc3ccccc23)cc1 (stereo not shown) [Example V4]
T1/2 (40° C.) [3, 5]: 2.5 min
Δ(10 min, 23° C.) relative brightening [3, 5]: 44%
